This note sets out measurements from US12383632B2, “Doxorubicin containing nanoplexes and uses thereof” (University of Maryland, Baltimore, priority 2019, dated 2025).

One experiment concerns Ki67. In words: Immunofluorescence of Ki67 in tumor sections. The class given is in vivo, mice. As for the experimental part:
Quantification of tumor cells staining positive for Ki67 with different treatment groups is shown, expressed as the percentage of Ki67 positive cells. The data represent the mean+SD of four HPF images (60×) for each treatment. **, p<0.01, ***, p<0.001. N=˜50 cells/image.
After the tumors were fixed and a heat-mediated antigen retrieval step was performed, the tumors were permeabilized (0.1% Triton X-100) for 10 min and then blocked with 5% BSA in 0.1% PBS-Tween for 2 h. […] Nuclear DNA was labeled with DAPI.

In a further experiment the test system is MDA-MB-435. Briefly: In vivo tumor experiments, tumor size. Set-up: species or system mice. The note with it: low dose 2.2 μg/injection, versus untreated controls. The protocol: MDA-MB-435 cells (4×10^6 cells per injection) were subcutaneously injected bilaterally into each mouse. After 4 days, when the subcutaneous tumors were about 45 mm3, the mice were separated into groups of 6 mice to determine the efficacy of treatments. The groups were as follows: untreated, nanoplex alone, low dose doxorubicin (2.2 μg/injection), high dose doxorubicin (4.4 μg/injection, low dose doxorubicin nanoplex (2.2 μg/injection), high dose doxorubicin nanoplex (4.4 μg/injection). The mice were given five intravenous injections of the various treatments. Nanoplexes were administered every 2 to 3 days (Monday, Wednesday, Friday). Tumor size was assessed with calipers before each injection and 2 days after the last injection; the size was calculated by formula ½×d1×d22, where d2 is the smaller of the two measurements. Mice were weighed before each injection with tumor weight subtracted to obtain the final weight.

For `COc1cccc2c1C(=O)c1c(O)c3c(c(O)c1C2=O)C[C@@](O)(C(=O)CO)C[C@@H]3O[C@H]1C[C@H](N)[C@H](O)[C@H](C)O1` [free doxorubicin, doxorubicin], the “tumor cells stained positive for Ki67” value with Ki67 (high dose, 4.4 μg doxorubicin/injection) is on record as “about 57%”; in the experiment with Ki67 (low dose, 2.2 μg doxorubicin/injection), 80%. For the same molecule, the “effect on growth / size of tumors (words)” value in the experiment with MDA-MB-435 was “does not reduce the size of tumors”; in the experiment with MDA-MB-435 (listed as doxorubicin), “no effect”.
